Laboratory results as given in patent publication US7169792B2, “Method of treating bacterial infections using gemifloxacin or a salt thereof and a β-lactam antibiotic” (priority 2002, dated 2007).
Read-outs that look alike come from different tables or passages of the source.

Key:
[1] = test system: E. faecalis ATCC 29212; assay: checkerboard titration, gemifloxacin and cefotaxime (MIC, FIC); type: cell-based, Enterococcus faecalis
Protocol: 1) The combined effect of gemifloxacin and cefotaxime was investigated in E. faecalis by using a checkerboard titration method. Evaluation for synergistic activity was carried out by calculation of fractional inhibitory concentrations (FICs) according to the method of Eliopoulos et al (1996, Antimicrobial Combinations, Antibiotics in Laboratory Medicine, Victor Lorian, 4th Edition, pp 337–338, Baltimore, Md., Williams and Wilkins).
E. faecalis ATCC 29212 was obtained from the SmithKline Beecham Anti-Infectives Research Culture Collection and stored at −80° C. in 10% glycerol. Before testing, the isolate was passaged onto agar plates (trypticase soy agar containing 5% sheeps blood) from the frozen stock for two consecutive days. Cation adjusted Mueller Hinton broth (BBL, Cockeysville, Md.) was used for the isolate.
(§1) Checkerboard microtitre broth dilution plates were prepared using the Hamilton MicroLab AT Plus system (Reno, Nev.). Two-fold serial dilutions (50 μl) of cefotaxime were made in columns 1 through 11 of a microtitre plate. Two-fold serial dilutions of gemifloxacin were prepared manually and the MicroLab AT Plus was used to dispense 25 μl of gemifloxacin at each concentration into rows A through G of the microtitre plate. The concentration range tested varied for each drug/organism combination to encompass the MIC endpoints of the individual components. Column 12 contained two fold serial dilutions of gemifloxacin only, and row H contained two fold serial dilutions of cefotaxie only. The last well (H) in column 12 was used as a positive growth control well, containing only medium and test isolate.
(§2) The bacteria were diluted to a 0.5 McFarland standard and then further diluted 1/50. Each well was inoculated with 25 μl of the isolate to give a final inoculum density of approximately 5×10^5 cfu/ml. The MicroLab AT Plus 2 was used to add the inoculum to the microtitre plates. After inoculation, the plates were covered with a 96 well microtitre plate lid and incubated at 35° C. in ambient air for 20–24 hours. A 10 μl aliquot of the inoculum was plated on trypticase soy agar containing 5% sheep blood to determine the purity of the final test inoculum.
(§3) Following incubation, a microtitre mirror reader (Cooke Instruments Ltd., England) was used to assist in determining the microdilution MIC endpoints. The MIC was determined as the lowest concentration of compound that inhibited visible growth of the organism.
(§4) The Fractional Inhibitory Concentrations (FICs) were calculated using the following formula: (A)/(MICA)+(B)/(MICB)=FICA+FICB=FICIndex wherein: • A is the MIC of drug A in the presence of drug B • B is the MIC of drug B in the presence of drug A • MIC A is the MIC of the organism to drug A alone • MIC B is the MIC of the organism to drug B alone • FIC A is the fractional inhibitory concentration of drug A • FIC B is the fractional inhibitory concentration of drug B
(§5) The FIC indices were interpreted using the following criteria: • ≦0.5=Synergy • >0.5–1=Additive • >1–2=Indifference • >2=Antagonism

[2] = test system: S. saprophyticus 662; assay: checkerboard titration, gemifloxacin and amoxicillin (MIC, FIC); type: cell-based, Staphylococcus saprophyticus
Protocol: The concentration range tested varied for each drug/organism combination to encompass the MIC endpoints of the individual components. […] The last well (H) in column 12 was used as a positive growth control well, containing only medium and test isolate.
The bacteria were diluted to a 0.5 McFarland standard and then further diluted 1/50. Each well was inoculated with 25 μl of the isolate to give a final inoculum density of approximately 5×10^5 cfu/ml. […] After inoculation, the plates were covered with a 96 well microtitre plate lid and incubated at 35° C. in ambient air for 20–24 hours. A 10 μl aliquot of the inoculum was plated on trypticase soy agar containing 5% sheep blood to determine the purity of the final test inoculum.
2) S. saprophyticus 662 was obtained from the SmithKline Beecham Anti-Infectives Research Culture Collection and stored at −80° C. in 10% glycerol. Before testing, the isolate was passaged onto agar plates (trypticase soy agar containing 5% sheeps blood) from the frozen stock for two consecutive days. Cation adjusted Mueller Hinton broth (BBL, Cockeysville, Md.) was used for the isolate.
The combined effect of gemifloxacin and amoxicillin was investigated in S. saprophyticus 662 by using the checkerboard titration method described in Example 1.

[3] = test system: E. coli ATCC 25922; assay: checkerboard titration, gemifloxacin and cefaclor (MIC, FIC); type: cell-based, Escherichia coli
Protocol: as §1, §2, §3, §4, §5
3) E. coli ATCC 25922 was obtained from the SmithKline Beecham Anti-Infectives Research Culture Collection and stored at −80° C. in 10% glycerol. Before testing, the isolate was passaged onto agar plates (trypticase soy agar containing 5% sheeps blood) from the frozen stock for two consecutive days. […]
The combined effect of gemifloxacin and cefaclor was investigated in E. coli ATCC 25922 by using the checkerboard titration method described in Example 1. FIC Indices were calculated and interpreted as in Example 1.

[4] = test system: clinically isolated P. aeruginosa; assay: checkerboard titration, gemifloxacin or ciprofloxacin with ceftazidime, 27 clinical isolates (Example 4); type: cell-based, Pseudomonas aeruginosa; conditions: for FICA: FIC of gemifloxacin; for Cgemifloxacin MIC: in combination with ceftazidime; for MIC: Pseudomonas aeruginosa, drug alone, read-out: gemifloxacin MIC
Protocol: The test organisms were clinical isolates collected in Korea. Organisms were frozen at −70 C prior to testing. Testing was done by the checkerboard method in 96-well plates using Mueller-Hinton broth. […] Ceftazidime was also dispensed alone in the first row in the first column. Test strains of P. aeruginosa were grown for 18 h in Mueller-Hinton broth, and then these overnight cultures were diluted with the same fresh medium to the density of approximately 10^7 CFU/mL. The bacterial concentrations were determined by measuring optical density or turbidity of the suspension and were verified by standard colony counts on antibiotic-free agar plates. A diluted bacterial solution was applied to 96-well plates containing serially diluted antimicrobial agents to yield 10^4 CFU per spot. Plates were incubated aerobically overnight.
Minimal inhibitory concentrations (MICs) for each separate drug were determined. For wells along the growth-no growth interface, synergy was determined by calculating the Fractional Inhibitory Concentration (FIC) index. The Fractional Inhibitory Concentration (FIC) indices were calculated using the following formula: FICindex=FICA+FICB=[A]/MICA+[B]/MICB • Wherein: • FICA(or B), is the FIC of drug A (or B) MICA (or B) is the MIC of the organism to drug A (or B) • A (or B) is concentration of drug A (or B) that is the lowest inhibitory concentration
The FIC indices were interpreted using the following criteria: • ≦0.5=Synergy • >0.5–1.0=Additive • >1.0–4.0=Indifference • >4.0=Antagonism

[5] = drug alone, no unit in this line (other lines μg/ml)

CO/N=C1\CN(c2nc3c(cc2F)c(=O)c(C(=O)O)cn3C2CC2)CC1CN (racemic) [gemifloxacin, (R,S)-7-(3-aminomethyl-4-methoxyiminopyrrolidin-1-yl)-1-cyclopropyl-6-fluoro-4-oxo-1,4-dihydro-1,8-naphthyridine-3-carboxylic acid]
MIC ([1]; Enterococcus faecalis, ATCC29212, in presence of cefotaxime 64 μg/ml, read-out: gemifloxacin MIC): 0.008 µg/mL
gemifloxacin MIC [1, 5]: 0.03
gemifloxacin MIC ([1]; in presence of cefotaxime 16 μg/ml): 0.008 µg/mL
gemifloxacin MIC ([1]; in presence of cefotaxime 32 μg/ml): 0.008 µg/mL
MIC ([2]; Staphylococcus saprophyticus, 662, in presence of amoxicillin 0.125 μg/ml, read-out: gemifloxacin MIC): 0.004 µg/mL
gemifloxacin MIC [2, 5]: 0.016
MIC ([3]; Escherichia coli, ATCC25922, in presence of cefaclor 1 μg/ml, read-out: gemifloxacin MIC): 0.002 µg/mL
gemifloxacin MIC [3, 5]: 0.008
MIC range ([4]; 27 clinically isolated P. aeruginosa): 0.25 to 32 µg/mL
FICA ([4]; P. aeruginosa 6003): 0.25
Cgemifloxacin MIC ([4]; P. aeruginosa 6003): 0.25 µg/mL
FICA ([4]; P. aeruginosa 6021): 0.25
Cgemifloxacin MIC ([4]; P. aeruginosa 6021): 0.25 µg/mL
FICA ([4]; P. aeruginosa 6030): 0.13
Cgemifloxacin MIC ([4]; P. aeruginosa 6030): 0.125 µg/mL
FICA ([4]; P. aeruginosa 6045): 0.25
Cgemifloxacin MIC ([4]; P. aeruginosa 6045): 1 µg/mL
FICA ([4]; P. aeruginosa 6047): 0.13
Cgemifloxacin MIC ([4]; P. aeruginosa 6047): 1 µg/mL
FICA ([4]; P. aeruginosa 6113): 0.25
Cgemifloxacin MIC ([4]; P. aeruginosa 6113): 0.125 µg/mL
FICA ([4]; P. aeruginosa 6123): 0.13
Cgemifloxacin MIC ([4]; P. aeruginosa 6123): 0.125 µg/mL
FICA ([4]; P. aeruginosa 6173): 0.13
Cgemifloxacin MIC ([4]; P. aeruginosa 6173): 0.125 µg/mL
FICA ([4]; P. aeruginosa P032): 0.13
Cgemifloxacin MIC ([4]; P. aeruginosa P032): 0.0625 µg/mL
FICA ([4]; P. aeruginosa P036): 0.13
Cgemifloxacin MIC ([4]; P. aeruginosa P036): 1 µg/mL
FICA ([4]; P. aeruginosa P039): 0.25
Cgemifloxacin MIC ([4]; P. aeruginosa P039): 0.5 µg/mL
MIC ([4]; P. aeruginosa 6003): 1 µg/mL
MIC ([4]; P. aeruginosa 6021): 1 µg/mL
MIC ([4]; P. aeruginosa 6030): 1 µg/mL
MIC ([4]; P. aeruginosa 6045): 4 µg/mL
MIC ([4]; P. aeruginosa 6047): 8 µg/mL
MIC ([4]; P. aeruginosa 6113): 0.5 µg/mL
MIC ([4]; P. aeruginosa 6123): 1 µg/mL
MIC ([4]; P. aeruginosa 6173): 1 µg/mL
MIC ([4]; P. aeruginosa P032): 0.5 µg/mL
MIC ([4]; P. aeruginosa P036): 8 µg/mL
MIC ([4]; P. aeruginosa P039): 2 µg/mL
